Results published in patent US6057447A, “Quinoline sulfide derivatives” (Zenyaku Kogyo Kabushiki Kaisha, priority 1996, dated 2000).
Converted amounts (≈) assume the structure as drawn.

Test system: Helicobacter pylori standard strain ATCC 43526 (NCTC 11916)
Test: Antibacterial Test 1: MIC against Helicobacter pylori, agar plate dilution method (anaerobic MIC method)
Assay type: cell-based
Conditions: 72 h, Hp ATCC 43526, agar plate dilution, 37° C., 3 days

SMILES	MIC [mg/L]
O=C(CSc1ccnc2ccccc12)c1ccc(-c2ccccc2)cc1 [Compound 4, 4-[2-(p-Biphenyl)-2-oxoethylthio]quinoline]	0.1 (≈ 0.281 µM)
COc1ccc(C(=O)CSc2ccnc3ccccc23)c(OC)c1 [Compound 6, 4-[2-(2,4-Dimethoxyphenyl)-2-oxoethylthio]quinoline]	0.05 (≈ 0.147 µM)
CC(C)(C)OC(=O)N1CCN(c2ccc(C(=O)CSc3ccnc4ccccc34)cc2Br)CC1 [Compound 14, 4-[2-[3-Bromo-4-(4-tert-butoxycarbonyl-1-piperazinyl)-phenyl]-2-oxoethylthio]quinoline]	0.0016 (≈ 0.00295 µM)
COc1ccc(Oc2ccc(C(=O)CSc3ccnc4ccccc34)cc2)cc1 [Compound 15, 4-[2-[4-(4-Methoxyphenoxy)phenyl]-2-oxoethylthio]-quinoline]	0.1 (≈ 0.249 µM)
COc1cc(C(=O)CSc2ccnc3ccccc23)cc(OC)c1OC [Compound 17, 4-(2-(3,4,5-Trimethoxyphenyl)-2-oxoethylthio]quinoline]	0.05 (≈ 0.135 µM)
CC(C)(C)C(=O)Nc1ccc(C(=O)CSc2ccnc3ccccc23)cc1 [Compound 19, 4-[2-(4-Pivaloylaminophenyl)-2-oxoethylthio]quinoline]	0.1 (≈ 0.264 µM)
O=C(CSc1ccnc2ccccc12)c1ccc(NCc2ccccc2)c(Br)c1 [Compound 20, 4-[2-(4-Benzylamino-3-bromophenyl)-2-oxoethylthio]-quinoline]	0.025 (≈ 0.0539 µM)
CC(C)(C)OC(=O)Nc1ccc(CCSc2ccnc3ccccc23)cc1 [Compound 24, 4-[2-(4-tert-Butoxycarbonylaminophenyl)ethylthio]-quinoline]	0.2 (≈ 0.526 µM)
c1ccc(COc2ccc(CCSc3ccnc4ccccc34)cc2)cc1 [Compound 25, 4-[2-(4-Benzyloxyphenyl)ethylthio]quinoline]	0.1 (≈ 0.269 µM)
CC(C)(C)C(=O)N1CCC(c2ccc(C(=O)CSc3ccnc4ccccc34)cc2)CC1 [Compound 28, 4-[2-[4-(1-Pivaloyl-4-piperidinyl)phenyl]-2-oxoethylthio]-quinoline]	0.0008 (≈ 0.00179 µM)
CC(C)CN1CCN(c2ccc(C(=O)CSc3ccnc4ccccc34)cc2)CC1 [Compound 29, 4-[2-[4-(4-Isobutyl-1-piperazinyl)phenyl]-2-oxoethylthio]quinoline]	0.0008 (≈ 0.00191 µM)
CC(C)(C)OC(=O)Nc1ccc(C(=O)CSc2ccnc3ccccc23)cc1 [Compound 30, 4-[2-(4-tert-Butoxycarbonylaminophenyl)-2-oxoethylthio]-quinoline]	0.1 (≈ 0.253 µM)
CSc1ccc2c(SC(C)c3ccc(N(C)C)cc3)ccnc2c1 (centres unmarked) [Compound 33, 4-[1-(4-Dimethylaminophenyl)ethylthio]-7-methylthio-quinoline]	0.2 (≈ 0.564 µM)
COc1ccc2c(SCc3ccc(NCC(C)C)cc3)ccnc2c1 [Compound 35, 4-(4-Isobutylaminobenzylthio)-7-methoxyquinoline]	0.39 (≈ 1.11 µM)
CCNc1ccc(CSc2ccnc3cc(SC)ccc23)cc1 [Compound 36, 4-(4-Ethylaminobenzylthio)-7-methylthioquinoline]	0.1 (≈ 0.294 µM)
CSc1ccc2c(SCc3ccc(NCCC(C)CC(C)(C)C)cc3)ccnc2c1 (centres unmarked) [Compound 37, 4-[4-(3,5,5-Trimethylhexylamino)benzylthio]-7-methylthioquinoline]	0.2 (≈ 0.456 µM)
CSc1ccc2c(SCc3ccc(NCC(=O)c4ccc5ccccc5c4)cc3)ccnc2c1 [Compound 38, 4-[4-(2-β-Naphtyl-2-oxoethylamino)benzylthio]-7-methylthioquinoline]	0.2 (≈ 0.416 µM)
CNc1ccc(CSc2ccnc3cc(SC)ccc23)cc1C [Compound 39, 4-(3-Methyl-4-methylaminobenzylthio)-7-methylthioquinoline]	0.1 (≈ 0.294 µM)
CSc1ccc2c(SCc3ccc(N(C)C)c(C)c3)ccnc2c1 [Compound 40, 4-(3-Methyl-4-dimethylaminobenzylthio)-7-methylthioquinoline]	0.2 (≈ 0.564 µM)
CSc1ccc2c(SCc3ccc(N(C)C)c(N(C)C)c3)ccnc2c1 [Compound 41, 4-[3,4-Bis(dimethylamino)benzylthio]-7-methylthioquinoline]	0.2 (≈ 0.521 µM)
CSc1ccc2c(SCc3ccc(N4CCOCC4)cc3)ccnc2c1 [Compound 43, 4-(4-Morpholinobenzylthio)-7-methylthioquinoline]	0.1 (≈ 0.261 µM)
CSc1ccc2c(SCc3ccc(N4CCCC4)cc3)ccnc2c1 [Compound 44, 4-[4-(1-Pyrrolidinyl)benzylthio]-7-methylthioquinoline]	0.2 (≈ 0.546 µM)
CSc1ccc2c(SCc3ccc(N4CCCCC4)cc3)ccnc2c1 [Compound 45, 4-(4-Piperidinobenzylthio)-7-methylthioquinoline]	0.2 (≈ 0.526 µM)
CSc1ccc2c(SCc3ccc(N4CCN(C)CC4)cc3)ccnc2c1 [Compound 46, 4-[4-(4-Methyl-1-piperazinyl)benzylthio]-7-methylthioquinoline]	0.1 (≈ 0.253 µM)

SMILES	MIC [mg/L]
CSc1ccc2c(SCc3ccc(N(CCOC(C)=O)CCOC(C)=O)cc3)ccnc2c1 [Compound 47, 4-[4-[Bis(2-acetoxyethyl)amino]benzylthio]-7-methylthioquinoline]	0.2 (≈ 0.413 µM)
CSc1ccc2c(SCc3ccc(N(CCO)CCOC(C)=O)cc3)ccnc2c1 [Compound 48, 4-[4-[N-(2-Acetoxyethyl)-2-hydroxyethylamino]benzylthio]-7-methylthioquinoline]	0.1 (≈ 0.226 µM)
CC(C)(C)OC(=O)N1CCN(CCc2ccc(C(=O)CSc3ccnc4ccccc34)cc2)CC1 [Compound 50, 4-[2-[4-[2-(4-tert-Butoxycarbonyl-1-piperazinyl)ethyl]-phenyl]-2-oxoethylthio]quinoline]	0.05 (≈ 0.102 µM)
Cl.O=C(CSc1ccnc2ccccc12)c1ccc(N2CCNCC2)cc1 [Compound 51, 4-[2-[4-(1-Piperazinyl)phenyl]-2-oxoethylthio]quinoline hydrochloride]	0.2
CC(C)(C)C(=O)N1CCN(c2ccc(C(=O)CSc3ccnc4ccccc34)cc2)CC1 [Compound 52, 4-[2-[4-(4-Pivaloyl-1-piperazinyl)phenyl]-2-oxoethylthio]quinoline]	0.0008 (≈ 0.00179 µM)
COc1ccc(C=CC(=O)N2CCN(c3ccc(C(=O)CSc4ccnc5ccccc45)cc3)CC2)cc1 [Compound 53, 4-[2-[4-[4-(4-Methoxycinnamoyl)-1-piperazinyl]phenyl]-2-oxoethylthio]quinoline]	0.025 (≈ 0.0477 µM)
CCN(CC)C(=S)N1CCN(c2ccc(C(=O)CSc3ccnc4ccccc34)cc2)CC1 [Compound 54, 4-[2-[4-(4-Diethylaminothiocarbonyl-1-piperazinyl)-phenyl]-2-oxoethylthio]quinoline]	0.0016 (≈ 0.00334 µM)
CCCCCCOc1ccc(C(=O)CSc2ccnc3ccccc23)c(OC)c1 [Compound 55, 4-[2-[2-Methoxy-4-hexyloxyphenyl]-2-oxoethylthio]-quinoline]	0.0062 (≈ 0.0151 µM)
COc1ccc(COc2ccc(C(=O)CSc3ccnc4ccccc34)cc2)cc1 [Compound 56, 4-[2-[4-(4-Methoxybenzyloxy)phenyl]-2-oxoethylthio]-quinoline]	0.0125 (≈ 0.0301 µM)
COc1cc(C(=O)CSc2ccnc3ccccc23)ccc1OCC1CO1 (centres unmarked) [Compound 57, 4-[2-[3-Methoxy-4-(2,3-epoxypropoxy)phenyl]-2-oxoethylthio]quinoline]	0.39 (≈ 1.02 µM)
COc1ccc(COc2ccc(C(=O)CSc3ccnc4ccccc34)cc2OC)cc1 [Compound 58, 4-[2-[3-Methoxy-4-(4-methoxybenzyloxy)phenyl]-2-oxoethylthio]quinoline]	0.0031 (≈ 0.00696 µM)
OC(CSc1ccnc2ccccc12)c1ccc2ccccc2c1 (centres unmarked) [Compound 61, 4-[2-(2-Naphtyl)-2-hydroxyethylthio]quinoline]	0.2 (≈ 0.603 µM)
CSc1ccc2c(SCc3ccc(N4CCN(C=O)CC4)cc3)ccnc2c1 [Compound 63, 4-[4-(4-Formyl-1-piperazinyl)benzylthio]-7-methylthioquinoline]	0.1 (≈ 0.244 µM)
CC(C)(C)CN1CCN(c2ccc(C(=O)CSc3ccnc4ccccc34)cc2Br)CC1 [Compound 66, 4-[2-[3-Bromo-4-(4-neopentyl-1-piperazinyl)phenyl]-2-oxoethylthio]quinoline]	0.0004 (≈ 0.00078 µM)
O=C(CSc1ccnc2ccccc12)c1ccc(N2CCN(c3ccc(Br)cc3)CC2)cc1 [Compound 67, 4-[2-[4-[4-(4-Bromophenyl)-1-piperazinyl]phenyl]-2-oxoethylthio]quinoline]	0.0062 (≈ 0.012 µM)
O=C(CSc1ccnc2ccccc12)c1ccc(N2CCN(c3ncccn3)CC2)cc1 [Compound 68, 4-[2-[4-[4-(2-Pyrimidyl)-1-piperazinyl]phenyl]-2-oxoethylthio]quinoline]	0.0016 (≈ 0.00362 µM)
CCCCCCCNc1ccc(C(=O)CSc2ccnc3ccccc23)cc1 [Compound 69, 4-[2-[4-(Heptylamino)phenyl]-2-oxoethylthio]quinoline]	0.025 (≈ 0.0637 µM)
CC(C)CN(C)CC(=O)Nc1ccc(CCSc2ccnc3ccccc23)cc1 [Compound 70, 4-[2-[4-[2-(N-Isobutyl-N-methylamino)acetylamino]-phenyl]ethylthio]quinoline]	0.05 (≈ 0.123 µM)
CC(C)CN1CC(=O)N(c2ccc(C(=O)CSc3ccnc4ccccc34)cc2)C1 [Compound 71, 4-[2-[4-(3-Isobutyl-5-oxo-1-imidazolidinyl)phenyl]-2-oxoethylthio]quinoline]	0.05 (≈ 0.119 µM)
CC(C)CN(C)CCN(C)c1ccc(CCSc2ccnc3ccccc23)cc1 [Compound 72, 4-[2-[4-[N-[2-(N-Isobutyl-N-methylamino)ethyl]-N-methylamino]phenyl]ethylthio]quinoline]	0.05 (≈ 0.123 µM)
CC(C)(C)OC(=O)N1CCN(c2ccc(C(=O)CSc3ccnc4ccc(F)cc34)cc2)CC1 [Compound 73, 4-[2-[4-(4-tert-Butoxycarbonyl-1-piperazinyl)phenyl]-2-oxoethylthio]-6-fluoroquinoline]	0.0062 (≈ 0.0129 µM)
CC(C)(C)C(=O)N1CC=C(c2ccc(C(=O)CSc3ccnc4ccccc34)cc2)CC1 [Compound 74, 4-[2-[4-(1-Pivaloyl-1,2,5,6-tetrahydropyrid-4-yl)phenyl]-2-oxoethylthio]quinoline]	0.0008 (≈ 0.0018 µM)
CC(C)(C)OC(=O)N1CCC(c2ccc(C(=O)CSc3ccnc4ccccc34)cc2)CC1 [Compound 75, 4-[2-[4-(1-tert-Butoxycarbonyl-4-piperidinyl)phenyl]-2-oxoethylthio]quinoline]	0.0125 (≈ 0.027 µM)
